In US7943749B2, “Antimicrobial 2-deoxystreptamine compounds” (Isis Pharmaceuticals, Inc., priority 2004, dated 2011):
“And” between values parts separate entries of the source, which are not always exact repeats. Identical values can stand only once. Like-named read-outs stand apart in the source and are kept apart here.

Experiments:
E. Coli = experiment: MIC, E. Coli; assay type: cell-based; conditions: 24 h;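 further: minimum inhibitory concentration determined in duplicate in 96-well plates, compounds given in 4% aqueous DMSO, with ampicillin and tetracycline as positive controls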
Method: (§1) The MIC assays are carried out in 150 μL volume in duplicate in 96-well clear flat-bottom plates. The bacterial suspension from an overnight culture growth in appropriate medium is added to a solution of test compound in 4% DMSO in water. Final bacterial inoculum is approximately 10^5-10^6 CFU/well. […] Both ampicillin and tetracycline are used as antibiotic-positive controls in each screening assay for S. pyogenes, E. coli imp-, E. coli, S. aureus, E. faecalis, K. pneumoniae and P. vulgaris. Ciprofloxacin is used as an antibiotic positive control in each screening assay for P. aeruginosa.

S. Aureus = experiment: MIC, S. Aureus; assay type: cell-based; conditions: 24 h
Method: as §1

[1] = biological target: 16S ribosomal subunit RNA target; experiment: Mass spectrometry based binding assay (FTICR), 16S
Method: In a typical experiment, 10 μL of an aqueous solution containing 100 mM ammonium acetate buffer, 2.5 or 5 μM of each RNA, and 33% isopropyl alcohol (to aid ion desolvation) was prepared with different concentrations of each ligand or ligand mixture. Samples were introduced into the electrospray ionization source (negative ionization mode) at 1 μL/min and ions were stored for 1 sec in an RF-only hexapole following desolvation. The abundances were integrated from the respective ions for free RNA and the ligand-RNA complex. The primary (1:1 RNA:ligand) and secondary (1:2 complex, if observed). […] The peak ratios were measured at each concentration, then a plot of complex/free RNA versus concentration of ligand added was fitted to a second (or higher) order binding polynomial to determine the KD.

[2] = test system: E. coli S30 bacterial extract (pBestLuc luciferase reporter); experiment: Coupled bacterial transcription/translation assay; assay type: biochemical; conditions: read-out: Trans/trans IC50
Method: The DNA template, pBestLuc™ (Promega), is a plasmid containing a reporter gene for firefly luciferase fused to a strong tac promoter and ribosome binding site. Messenger RNA from 1 μg pBestLuc is transcribed and translated in E. coli S30 bacterial extract in the presence or absence of test compound. Compounds are tested in a black 96 well microtiter plate with an assay volume of 35 μL. […] The transcription/translation reaction is incubated for 35 minutes at 37° C. followed by detection of functional luciferase with the addition of 30 μL LucLite™ (Packard). Light output is quantitated on a Packard TopCount.

[3] = range between growth and complete inhibition

Method for S. aureus (ATCC 13709): Male ICR mice are fed with autoclaved commercial food pellets and sterile water ad libitum. Animals are inoculated intraperitoneally with 1.0×10^6 CFU/0.5 mL/mouse of S. aureus (ATCC 13709) containing 10% mucin. Ten animals each are randomly assigned to either control or treatment groups. Test compound and gentamycin (included as a positive control) are both administered subcutaneously one and 3 hour after infection. Test compound is administered as an aqueous buffer solution (phosphate buffered saline (PBS), pH=7.4). The data is presented as the number of mice out of the 10 in the group that were not protected from lethal infection.

NCCN(CCN)CCOC1C(OC2C(O)C(N)CC(N)C2OC2OC(CO)C(O)C(O)C2N)OC(CO)C1OC1OC(CN)C(O)C(O)C1N (stereo not shown) [IBIS00560172]
MIC E. Coli. (E. Coli; [3]): >50 µM
MIC S. Aureus (S. Aureus; [3]): 25 to 50 µM

CN(C)CCOC1C(OC2C(O)C(N)CC(N)C2OC2OC(CO)C(O)C(O)C2N)OC(CO)C1OC1OC(CN)C(O)C(O)C1N (stereo not shown) [IBIS00560174]
Kd [1]: 0.93 µM
IC50 [2]: 0.21 µM
MIC E. Coli. (E. Coli; [3]): 12 to 52 µM
MIC S. Aureus (S. Aureus; [3]): 6 to 12 µM

NCCCNCCOC1C(OC2C(O)C(N)CC(N)C2OC2OC(CO)C(O)C(O)C2N)OC(CO)C1OC1OC(CN)C(O)C(O)C1N (stereo not shown) [IBIS00560175]
IC50 [2]: 0.29 µM
MIC E. Coli. (E. Coli; [3]): 25 to 50 µM and 25 µM
MIC S. Aureus (S. Aureus; [3]): 3 to 6 µM and 3 µM

NCCNCCOC1C(OC2C(O)C(N)CC(N)C2OC2OC(CO)C(O)C(O)C2N)OC(CO)C1OC1OC(CN)C(O)C(O)C1N (stereo not shown) [IBIS00560177]
IC50 [2]: 0.29 µM
MIC E. Coli. (E. Coli; [3]): 6 µM and 6 to 12 µM
MIC S. Aureus (S. Aureus; [3]): 2 µM and 2 to 3 µM

NCC1OC(OC2C(CO)OC(OC3C(O)C(N)CC(N)C3OC3OC(CO)C(O)C(O)C3N)C2OCCNC2CCCNC2)C(N)C(O)C1O (stereo not shown) [IBIS00560725]
Kd [1]: 0.11 µM
IC50 [2]: 0.08 µM
MIC E. Coli. (E. Coli; [3]): 1.5-3^ μM
MIC S. Aureus (S. Aureus; [3]): 3 to 6 µM

NCC1OC(OC2C(CO)OC(OC3C(O)C(N)CC(N)C3OC3OC(CO)C(O)C(O)C3N)C2OCCNCC2CCCNC2)C(N)C(O)C1O (stereo not shown) [IBIS00560726]
Kd [1]: 0.25 µM and 0.13 µM

NCC1OC(OC2C(CO)OC(OC3C(O)C(N)CC(N)C3OC3OC(CO)C(O)C(O)C3N)C2OCCNCc2nc3ccccc3[nH]2)C(N)C(O)C1O (stereo not shown) [IBIS00560797]
Kd [1]: 4.1 µM
IC50 [2]: 0.34 µM
MIC E. Coli. (E. Coli; [3]): 6 to 12 µM
MIC S. Aureus (S. Aureus; [3]): 25 to 50 µM

NCC1OC(OC2C(CO)OC(OC3C(O)C(N)CC(N)C3OC3OC(CO)C(O)C(O)C3N)C2OCCNc2cccnc2)C(N)C(O)C1O (stereo not shown) [IBIS00560798]
Kd [1]: 0.55 µM
IC50 [2]: 0.08 µM
MIC E. Coli. (E. Coli; [3]): 3 to 6 µM
MIC S. Aureus (S. Aureus; [3]): 0.6-1^ μM

NCC1OC(OC2C(CO)OC(OC3C(O)C(N)CC(N)C3OC3OC(CO)C(O)C(O)C3N)C2OCCNC2CCCCC2)C(N)C(O)C1O (stereo not shown) [IBIS00560931]
MIC E. Coli. (E. Coli): 3 to 6 µM
MIC S. Aureus (S. Aureus): 3 to 5 µM

NCC1OC(OC2C(CO)OC(OC3C(O)C(N)CC(N)C3OC3OC(CO)C(O)C(O)C3N)C2OCCNc2ccccc2)C(N)C(O)C1O (stereo not shown) [IBIS00560932]
MIC E. Coli. (E. Coli): 50 to 100 µM
MIC S. Aureus (S. Aureus): 6 to 12 µM

NCC1OC(OC2C(CO)OC(OC3C(O)C(N)CC(N)C3OC3OC(CO)C(O)C(O)C3N)C2OCCNCc2ccnc(N)c2)C(N)C(O)C1O (stereo not shown) [IBIS00560965]
MIC E. Coli. (E. Coli): 6 to 12 µM
MIC S. Aureus (S. Aureus): 0.6-1^ μM

NCC1OC(OC2C(CO)OC(OC3C(O)C(N)CC(N)C3OC3OC(CO)C(O)C(O)C3N)C2OCCNCCc2cccnc2)C(N)C(O)C1O (stereo not shown) [IBIS00560972]
MIC E. Coli. (E. Coli): 6 to 12 µM
MIC S. Aureus (S. Aureus): 0.6-1^ μM

NCC1OC(OC2C(CO)OC(OC3C(O)C(N)CC(N)C3OC3OC(CO)C(O)C(O)C3N)C2OCCNCCc2ccccc2)C(N)C(O)C1O (stereo not shown) [IBIS00560973]
MIC E. Coli. (E. Coli): 3 to 6 µM
MIC S. Aureus (S. Aureus): 0.3 to 0.6 µM
number of mice out of the 10 in the group that were not protected from lethal infection (S. aureus (ATCC 13709); 0.1 mg/kg subcutaneously 1 and 3 hour after i.p. infection): 5/10
number of mice out of the 10 in the group that were not protected from lethal infection (S. aureus (ATCC 13709); 0.5 mg/kg subcutaneously 1 and 3 hour after i.p. infection): 0/10
number of mice out of the 10 in the group that were not protected from lethal infection (S. aureus (ATCC 13709); 1 mg/kg subcutaneously 1 and 3 hour after i.p. infection): 0/10
number of mice out of the 10 in the group that were not protected from lethal infection (S. aureus (ATCC 13709); 2 mg/kg subcutaneously 1 and 3 hour after i.p. infection): 0/10
number of mice out of the 10 in the group that were not protected from lethal infection (S. aureus (ATCC 13709); 4.5 mg/kg subcutaneously 1 and 3 hour after i.p. infection): 0/10
number of mice out of the 10 in the group that were not protected from lethal infection (S. aureus (ATCC 13709); 9 mg/kg subcutaneously 1 and 3 hour after i.p. infection): 0/10
number of mice out of the 10 in the group that were not protected from lethal infection (S. aureus (ATCC 13709); 18 mg/kg subcutaneously 1 and 3 hour after i.p. infection): 0/10
number of mice out of the 10 in the group that were not protected from lethal infection (S. aureus (ATCC 13709); 37 mg/kg subcutaneously 1 and 3 hour after i.p. infection): 0/10
number of mice out of the 10 in the group that were not protected from lethal infection (S. aureus (ATCC 13709); 75 mg/kg subcutaneously 1 and 3 hour after i.p. infection): 0/10
prevention of lethal bacterial infection in mice (in words) (S. aureus (ATCC 13709); S. aureus ATCC 13709 i.p., compound s.c.): effective at preventing lethal bacterial infections in mice
number of mice out of the 10 in the group that were not protected from lethal infection (S. aureus (ATCC 13709); mouse, in vivo): 1/10
